Target: phosphorylated active hERK2 enzyme (Homo sapiens (Human), UniProt P28482)
Experiment: Active Human ERK2 (hERK2) Activity Assay (IMAP-FP)
Assay type: biochemical
Details: Table 6, 0.5 nM hERK2, 30 μM ATP, 10 point titration, read-out: AERK2 IC50
In short: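 IMAP fluorescence-polarization kinase assay: 0.5 nM activated hERK2 with 900 nM unlabeled plus 80 nM labeled peptide and 30 μM ATP, reacted 60 min. Quenched with IMAP beads in binding buffer with 24 mM NaCl; FP read after 60 min equilibration.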

phosphorylated active hERK2 enzyme, sequence (P28482 whole entry): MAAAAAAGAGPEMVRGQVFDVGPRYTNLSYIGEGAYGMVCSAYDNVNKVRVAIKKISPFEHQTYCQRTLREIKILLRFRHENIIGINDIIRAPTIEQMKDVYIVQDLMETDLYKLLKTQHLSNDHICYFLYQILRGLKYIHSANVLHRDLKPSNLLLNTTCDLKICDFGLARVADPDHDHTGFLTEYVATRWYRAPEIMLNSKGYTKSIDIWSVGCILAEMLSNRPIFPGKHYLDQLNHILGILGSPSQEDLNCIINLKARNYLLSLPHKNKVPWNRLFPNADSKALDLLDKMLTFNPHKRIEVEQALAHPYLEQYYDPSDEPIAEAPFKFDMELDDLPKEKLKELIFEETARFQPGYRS

| SMILES | IC50 [nM] |
| --- | --- |
| CCNc1n[nH]c2cc(NC(=O)NCc3c(C)cccc3Cl)ncc12 [Example 227, 1-(2-chloro-6-methylbenzyl)-3-[3-(ethylamino)-1H-pyrazolo[4,3-c]pyridin-6-yl]urea] | 11.3 |
| CCNc1n[nH]c2cc(NC(=O)NCc3ccccc3OC(F)F)ncc12 [Example 228, 1-[2-(difluoro-methoxy)benzyl]-3-[3-(ethylamino)-1H-pyrazolo[4,3-c]pyridin-6-yl]urea] | 3.5 |
| CCNc1n[nH]c2cc(NC(=O)N[C@H](C)C3CCCCC3)ncc12 [Example 230, 1-[(1R)-1-cyclohexylethyl]-3-[3-(ethylamino)-1H-pyrazolo[4,3-c]pyridin-6-yl]urea] | 11.7 |
| CCNc1n[nH]c2cc(NC(=O)NCc3cnsn3)ncc12 [Example 231, 1-[3-(ethylamino)-1H-pyrazolo[4,3-c]pyridin-6-yl]-3-(1,2,5-thiadiazol-3-ylmethyl)urea] | 57 |
| CCNc1n[nH]c2cc(NC(=O)NC3CNc4ccccc4C3)ncc12 (stereo not shown) [Example 232, 1-[3-(ethylamino)-1H-pyrazolo[4,3-c]pyridin-6-yl]-3-(1,2,3,4-tetrahydro-quinolin-3-yl)urea] | 18.6 |
| CCNc1n[nH]c2cc(NC(=O)NC3COc4ccccc4C3)ncc12 (stereo not shown) [Example 233, 1-(3,4-dihydro-2H-chromen-3-yl)-3-[3-(ethylamino)-1H-pyrazolo[4,3-c]pyridin-6-yl]urea] | 28 |
| CCNc1n[nH]c2cc(NC(=O)NC3COc4ccccc43)ncc12 (stereo not shown) [Example 235, 1-(2,3-dihydro-1-benzofuran-3-yl)-3-[3-(ethylamino)-1H-pyrazolo[4,3-c]pyridin-6-yl]urea] | 334 |
| CCNc1n[nH]c2cc(NC(=O)NCc3cccnc3OCC)ncc12 [Example 238, 1-[(2-ethoxy-pyridin-3-yl)-methyl]-3-[3-(ethylamino)-1H-pyrazolo[4,3-c]pyridin-6-yl]urea] | 9.6 |
| CCNc1n[nH]c2cc(NC(=O)NCc3ccc(F)c(Cl)c3)ncc12 [Example 240, 1-(3-chloro-4-fluorobenzyl)-3-[3-(ethylamino)-1H-pyrazolo[4,3-c]-pyridin-6-yl]urea] | 14.7 |
| CCNc1n[nH]c2cc(NC(=O)NCc3cccc(F)c3)ncc12 [Example 241, 1-[3-(ethylamino)-1H-pyrazolo[4,3-c]pyridin-6-yl]-3-(3-fluorobenzyl)-urea] | 11.8 |
| CCNc1n[nH]c2cc(NC(=O)NCc3c(F)cccc3OC)ncc12 [Example 242, 1-[3-(ethylamino)-1H-pyrazolo[4,3-c]pyridin-6-yl]-3-(2-fluoro-6-methoxybenzyl)-urea] | 2.4 |
| CCNc1n[nH]c2cc(NC(=O)N[C@H](C)c3cccc(F)c3)ncc12 [Example 243, 1-[3-(ethylamino)-1H-pyrazolo[4,3-c]pyridin-6-yl]-3-[(1R)-1-(3-fluorophenyl)-ethyl]urea] | 1.7 |
| CCNc1n[nH]c2cc(NC(=O)NCc3c(F)cccc3Cl)ncc12 [Example 244, 1-(2-chloro-6-fluorobenzyl)-3-[3-(ethylamino)-1H-pyrazolo[4,3-c]-pyridin-6-yl]urea] | 10.8 |
| CCNc1n[nH]c2cc(NC(=O)N[C@H](C)c3ccc(F)c(Cl)c3)ncc12 [Example 245, 1-[(1R)-1-(3-chloro-4-fluorophenyl)ethyl]-3-[3-(ethylamino)-1H-pyrazolo[4,3-c]pyridin-6-yl]urea] | 6.7 |
| CCNc1n[nH]c2cc(NC(=O)N[C@H](C)c3cccc(Cl)c3)ncc12 [Example 246, 1-[(1R)-1-(3-chlorophenyl)ethyl]-3-[3-(ethylamino)-1H-pyrazolo[4,3-c]pyridin-6-yl]urea] | 2.4 |
| CCNc1n[nH]c2cc(NC(=O)N[C@H](CC)c3ccc(Cl)cc3)ncc12 [Example 247, 1-[(1R)-1-(4-chlorophenyl)propyl]-3-[3-(ethylamino)-1H-pyrazolo[4,3-c]-pyridin-6-yl]urea] | 2.2 |
| CCNc1n[nH]c2cc(NC(=O)N[C@H](C)c3ccc(Cl)c(Cl)c3)ncc12 [Example 248, 1-[(1R)-1-(3,4-dichlorophenyl)ethyl]-3-[3-(ethyl-amino)-1H-pyrazolo[4,3-c]-pyridin-6-yl]urea] | 3.2 |
| CCNc1n[nH]c2cc(NC(=O)N[C@H](C)c3ccc(Cl)cc3)ncc12 [Example 249, 1-[(1R)-1-(4-chlorophenyl)ethyl]-3-[3-(ethylamino)-1H-pyrazolo[4,3-c]pyridin-6-yl]urea] | 12 |
| CCNc1n[nH]c2cc(NC(=O)NCc3cccnc3N(C)C)ncc12 [Example 250, 1-{[2-(dimethyl-amino)pyridin-3-yl]methyl}-3-[3-(ethylamino)-1H-pyrazolo[4,3-c]-pyridin-6-yl]urea] | 32 |
| CCNc1n[nH]c2cc(NC(=O)NC(C)c3ccc(F)c(F)c3)ncc12 (stereo not shown) [Example 251, 1-[1-(3,4-difluoro-phenyl)ethyl]-3-[3-(ethylamino)-1H-pyrazolo[4,3-c]-pyridin-6-yl]urea] | 3.2 |
| CCNc1n[nH]c2cc(NC(=O)N[C@H](C)c3ccc(Cl)c(C)c3)ncc12 [Example 252, 1-[(1R)-1-(4-chloro-3-methyl-phenyl)ethyl]-3-[3-(ethylamino)-1H-pyrazolo[4,3-c]-pyridin-6-yl]urea] | 2 |
| CCNc1n[nH]c2cc(NC(=O)N[C@@H]3CN(C)C[C@H]3c3ccccc3)ncc12 [Example 253, 1-[3-(ethylamino)-1H-pyrazolo[4,3-c]pyridin-6-yl]-3-[(3S,4R)-1-methyl-4-phenylpyrrolidin-3-yl]urea] | 1 |

Results, then the compound that gave them:

| IC50 [nM] | SMILES |
| --- | --- |
| 12.4 | CC(C)OC(=O)Nc1n[nH]c2cc(NC(=O)N[C@H](C)c3ccccc3)ncc12 [Example 223, 1-methylethyl[6-({[(1R)-1-phenylethyl]-carbamoyl}amino)-1H-pyrazolo[4,3-c]pyridin-3-yl]-carbamate] |
| 355 | C[C@@H](NC(=O)Nc1cc2[nH]nc(NC(=O)OCC(C)(C)C)c2cn1)c1ccccc1 [Example 224, 2,2-dimethylpropyl [6-({[(1R)-1-phenylethyl]-carbamoyl}amino)-1H-pyrazolo[4,3-c]pyridin-3-yl]-carbamate] |
| 39.8 | C[C@@H](NC(=O)Nc1cc2[nH]nc(NC(=O)OCc3ccccc3)c2cn1)c1ccccc1 [Example 225, benzyl [6-({[(1R)-1-phenylethyl]-carbamoyl}amino)-1H-pyrazolo[4,3-c]pyridin-3-yl]-carbamate] |
| 17 | CCNc1n[nH]c2cc(NC(=O)NCC(C)c3ccccc3)ncc12 (stereo not shown) [Example 226, 1-[3-(ethylamino)-1H-pyrazolo[4,3-c]pyridin-6-yl]-3-(2-phenylpropyl)-urea] |
| 52 | CCNc1n[nH]c2cc(NC(=O)N[C@@H]3CCOc4ccccc43)ncc12 [Example 234, 1-[(4R)-3,4-dihydro-2H-chromen-4-yl]-3-[3-(ethylamino)-1H-pyrazolo[4,3-c]pyridin-6-yl]urea] |
| 0.7 | CCNc1n[nH]c2cc(NC(=O)N[C@@H](c3ccccc3)C3(O)CCCC3)ncc12 [Example 236, 1-[3-(ethylamino)-1H-pyrazolo[4,3-c]pyridin-6-yl]-3-[(S)-(1-hydroxy-cyclopentyl)-(phenyl)methyl]-urea] |
| 8.3 | CCNc1n[nH]c2cc(NC(=O)NC3CCCC3c3ccccc3)ncc12 (stereo not shown) [Example 237, 1-[3-(ethylamino)-1H-pyrazolo[4,3-c]pyridin-6-yl]-3-(2-phenyl-cyclopentyl)urea] |
| 27.4 | CCNc1n[nH]c2cc(NC(=O)N[C@@H](CN(C)C)c3ccccc3)ncc12 [Example 239, 1-[(1R)-2-(dimethylamino)-1-phenylethyl]-3-[3-(ethylamino)-1H-pyrazolo[4,3-c]pyridin-6-yl]urea] |
| 57.7 | CC(CNC(=O)Nc1cc2[nH]nc(N)c2cn1)c1ccccc1 (stereo not shown) [Example 254, 1-(3-amino-1H-pyrazolo[4,3-c]pyridin-6-yl)-3-(2-phenyl-propyl)urea] |
| 18.1 | C[C@@H](NC(=O)Nc1cc2[nH]nc(N)c2cn1)C1CCCCC1 [Example 255, 1-(3-amino-1H-pyrazolo[4,3-c]pyridin-6-yl)-3-[(1R)-1-cyclohexyl-ethyl]urea] |
| 37.5 | Nc1n[nH]c2cc(NC(=O)NC3CNc4ccccc4C3)ncc12 (stereo not shown) [Example 256, 1-(3-amino-1H-pyrazolo[4,3-c]pyridin-6-yl)-3-(1,2,3,4-tetrahydro-quinolin-3-yl)urea] |
| 37.1 | Nc1n[nH]c2cc(NC(=O)NC3COc4ccccc4C3)ncc12 (stereo not shown) [Example 257, 1-(3-amino-1H-pyrazolo[4,3-c]pyridin-6-yl)-3-(3,4-dihydro-2H-chromen-3-yl)urea] |
| 103 | Nc1n[nH]c2cc(NC(=O)N[C@@H]3CCOc4ccccc43)ncc12 [Example 258, 1-(3-amino-1H-pyrazolo[4,3-c]pyridin-6-yl)-3-[(4R)-3,4-dihydro-2H-chromen-4-yl]-urea] |
| 325 | Nc1n[nH]c2cc(NC(=O)NC3COc4ccccc43)ncc12 (stereo not shown) [Example 259, 1-(3-amino-1H-pyrazolo[4,3-c]pyridin-6-yl)-3-(2,3-dihydro-1-benzofuran-3-yl)-urea] |
| 0.4 | Nc1n[nH]c2cc(NC(=O)N[C@@H](c3ccccc3)C3(O)CCCC3)ncc12 [Example 260, 1-(3-amino-1H-pyrazolo[4,3-c]-pyridin-6-yl)-3-[(S)-(1-hydroxy-cyclopentyl)-(phenyl)methyl]-urea] |
| 6 | Nc1n[nH]c2cc(NC(=O)NC3CCCC3c3ccccc3)ncc12 (stereo not shown) [Example 261, 1-(3-amino-1H-pyrazolo[4,3-c]-pyridin-6-yl)-3-(2-phenylcyclopentyl)urea] |
| 20.7 | CCOc1ncccc1CNC(=O)Nc1cc2[nH]nc(N)c2cn1 [Example 262, 1-(3-amino-1H-pyrazolo[4,3-c]pyridin-6-yl)-3-[(2-ethoxypyridin-3-yl)methyl]urea] |
| 127 | CN(C)C[C@H](NC(=O)Nc1cc2[nH]nc(N)c2cn1)c1ccccc1 [Example 263, 1-(3-amino-1H-pyrazolo[4,3-c]-pyridin-6-yl)-3-[(1R)-2-(dimethylamino)-1-phenylethyl]urea] |
